# Where two headings read alike, the source gives them in different places.
# How the values were obtained:
# [1] = Urinary excretion and renal clearance of Compound A in the pharmacokinetic study; type: in vivo, human; conditions: for mean amount excreted unchanged in urine / mean percentage of dose excreted unchanged in urine: over 48 hours following dosing
# Description: (§1) In this open-label, randomized study, subjects received the following treatments: • Two single oral doses of 100 mg (2×50 mg) Compound A adult immediate release tablet formulation, fasted state, administered on Day 1 and Day 12. • Repeat doses of phenytoin 100 mg TID for 10 days (from Day 3 until the morning of Day 12).
# (§2) Subjects fasted overnight for a minimum of 10 hours prior to dosing on Day 1 and Day 12. An oral dose of the Compound A IR tablet treatment was administered in the morning with approximately 240 mL of water at ambient temperature, to 1 subject per 2 minute intervals. Fasting continued for at least 4 hours following administration. Water was provided as needed until 1 hour pre-dose. Water was allowed beginning 1 hour after the administration of the drug.
# (§3) On Day 3 to Day 11, an oral dose of phenytoin was administered TID with approximately 240 mL of water at ambient temperature, starting at 07:30, 15:30, and 23:30 to 1 subject per 2 minute intervals. On Day 12, an oral dose of phenytoin was administered in the morning with approximately 240 mL of water at ambient temperature, starting at 07:30 (1 hour prior to Compound A dosing) to 1 subject per 2 minute intervals.
# (§4) The direct measurements of this study were the plasma, whole blood, urine, and saliva concentrations of Compound A and plasma concentrations for phenytoin.
# [2] = test system: CYP3A4, CYP2D6, CYP2C9; conditions: has been reported; cited from earlier work
# [3] = Open-label randomized pharmacokinetic drug-drug interaction study: plasma PK of Compound A alone or with phenytoin; type: in vivo, human; conditions: for Cmax / AUC / Tmax / AUC(0-t) / AUC(0-inf) / half-life: human, plasma; for Cmax / AUC / Tmax / half-life: 100 mg; for AUC(0-t): read-out: mean AUC0-t; for AUC(0-inf): read-out: mean AUC0-inf; for half-life: read-out: elimination half-life (converted)
# Description: as §1, §2, §3, §4
# The magnitude of DDI was described using GMR (with/without phenytoin) and associated 90% CI of the Cmax, AUC0-t, and AUC0-inf for Compound A.
# [4] = Safety: treatment-emergent adverse events (TEAEs) in the pharmacokinetic study; type: in vivo, human
# Description: as §1
# A total of 15 subjects (83%) reported 101 TEAEs over the course of the study. Three treatment periods were defined: Day 1 to Day 3 (following Compound A dosing on Day 1 and prior to start of phenytoin dosing on Day 3) corresponds to the Compound A treatment period, Day 3 to Day 12 (following phenytoin dosing on Day 3 and prior to Compound A dosing on Day 12) corresponds to the phenytoin treatment period, and Day 12 to the follow-up visit (following Compound A dosing on Day 12) corresponds to the Compound A in combination with phenytoin treatment period.
# [5] = Compound A 100 mg + phenytoin 100 mg TID
# [6] = with phenytoin 100 mg TID for 10 days (Day 12) vs Compound A alone
# [7] = with vs without phenytoin comparison
# [8] = whole study (Compound A, phenytoin, combination)
smiles,measurement,setting,value
"Cc1cc(S(=O)(=O)Nc2cscn2)c(F)cc1N(C)[C@H]1CCN(Cc2ccccc2)C1 [Compound A, (S)-4-((1-benzylpyrrolidin-3-yl)(methyl)amino)-2-fluoro-5-methyl-N-(thiazol-4-yl)benzenesulfonamide]",mean amount excreted unchanged in urine,[1]; [5],57186 ng
same,mean percentage of dose excreted unchanged in urine,[1]; [5],0.06%
same,mean amount excreted unchanged in urine,[1]; Compound A 100 mg alone,71103 ng
same,mean percentage of dose excreted unchanged in urine,[1]; Compound A 100 mg alone,0.07%
same,CL renal,"[1]; human, urine, oral, both treatments: presence (Day 12) or absence (Day 1) of phenytoin",0.05 to 0.0667 mL/min
same,CLr GMR,[1]; with/without phenytoin,100.25%
same,metabolizing CYP enzymes,[2],"metabolized by CYP3A4, CYP2D6, and to a lesser extent CYP2C9"
same,effect of phenytoin 100 mg TID on Compound A total systemic exposure,[3]; 90% CI of GMR for AUC0-t and AUC0-inf within no effect boundaries 80.00-125.00%,did not affect
same,apparent clearance,[3]; Compound A alone,5.4 L/h
same,apparent volume of distribution,[3]; Compound A alone,89 L
same,apparent clearance,[3]; Compound A with phenytoin,5.7 L/h
same,apparent volume of distribution,[3]; Compound A with phenytoin,65 L
same,increase of peak plasma concentration (Cmax),[3]; co-administered with phenytoin 100 mg TID x 10 days vs Compound A alone,approximately 22%
same,Cmax,"[3]; oral, Compound A 100 mg alone, full sampling, read-out: mean Cmax",3.3 µg/mL
same,AUC,"[3]; oral, Compound A 100 mg alone, truncated sampling",19.9 µg·h/mL
same,Cmax,"[3]; oral, Compound A 100 mg alone, truncated sampling, read-out: Cmax",3.22 µg/mL
same,Tmax,"[3]; oral, Compound A 100 mg alone, truncated sampling, read-out: Tmax",1 h
same,Cmax,"[3]; oral, Compound A 100 mg with phenytoin 100 mg TID x 10 days, full sampling, read-out: mean Cmax",3.72 µg/mL
same,AUC,"[3]; oral, Compound A with phenytoin 100 mg TID x 10 days, truncated sampling",18.6 µg·h/mL
same,Cmax,"[3]; oral, Compound A with phenytoin 100 mg TID x 10 days, truncated sampling, read-out: Cmax",3.68 µg/mL
same,Tmax,"[3]; oral, Compound A with phenytoin 100 mg TID x 10 days, truncated sampling, read-out: Tmax",1 h
same,AUC(0-t),"[3]; oral, Compound A 100 mg + phenytoin 100 mg TID x 10 days, full sampling",17.9 µg·h/mL
same,AUC(0-inf),"[3]; oral, Compound A 100 mg + phenytoin 100 mg TID x 10 days",18 µg·h/mL
same,AUC(0-t),"[3]; oral, Compound A 100 mg alone, full sampling",19.1 µg·h/mL
same,AUC(0-inf),"[3]; oral, Compound A 100 mg alone",19.8 µg·h/mL
same,Tmax,"[3]; po, Compound A 100 mg single oral dose alone (Day 1), fasted, full sampling, read-out: time to peak plasma concentrations (Tmax)",~1 h
same,Tmax,"[3]; po, Compound A 100 mg single oral dose with phenytoin 100 mg TID for 10 days (Day 12), full sampling, read-out: time to peak plasma concentrations (Tmax)",~1 h
same,half-life,"[3]; po, Compound A alone",10 h
same,half-life,"[3]; po, Compound A with phenytoin",8 h
same,difference in AUC0-inf,[3]; [6],~7%
same,difference in AUC0-t,[3]; [6],approximately 4%
same,intra-subject CV % of AUC0-inf,[3]; [7],22%
same,intra-subject CV % of AUC0-t,[3]; [7],26%
same,intra-subject CV % of Cmax,[3]; [7],53%
same,AUC0-inf GMR,"[3]; with/without phenytoin, 90% CI 81.75-105.23%",92.75%
same,AUC0-t GMR,"[3]; with/without phenytoin, 90% CI 82.54-111.67%",96.01%
same,Cmax geometric mean ratio (GMR),"[3]; with/without phenytoin, 90% CI 90.94-162.38%",121.52%
same,incidence of subjects with TEAEs,[4]; Compound A alone on Day 1,39%
same,incidence of subjects with TEAEs,[4]; Compound A in combination with phenytoin on Day 12,65%
same,deaths or SAEs,[4]; [8],No deaths or SAEs occurred
same,subjects reporting a severe TEAE,[4]; [8],None
"O=C1NC(=O)C(c2ccccc2)(c2ccccc2)N1 [phenytoin, reference compound]",incidence of subjects with TEAEs,[4]; phenytoin alone from Day 3 to Day 12,71%

# From US20230405023A1, “USE OF THE NAV1.6 SODIUM CHANNEL BLOCKER (S)-4-((1-BENZYLPYRROLIDIN-3-YL)(METHYL)AMINO)-2-FLUORO-5-METHYL-N(THIAZOL-4-YL)BENZENESULFONAMIDE, TOGETHER WITH STRONG INDUCERS OF CYTOCHROME P450 3A4, IN THE TREATMENT OF CONDITIONS ASSOCIATED WITH NAVI.6 ACTIVITY” (Xenon Pharmaceuticals Inc., priority 2020, published 2023)
